According to PubChem BioAssay (NCI):
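Grown in 96-well plates, cells were treated for 48 hours with each compound at five concentrations. Insufficient inhibition: endpoint recorded as highest concentration tested. The concentration for 50% growth inhibition is given as GI50. Definition used: TGI = concentration required for complete inhibition of growth.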

Experiments:
Assay in all cases: inhibition of tumour cell growth, NCI panel, 48 h
[1] = test system: OVCAR-5 ovarian
[2] = test system: NCI-H522 lung
[3] = test system: MALME-3M melanoma
[4] = test system: UACC-62 melanoma
[5] = test system: UACC-257 melanoma
[6] = test system: IGROV1 ovarian
[7] = test system: SW-620 colon
[8] = test system: EKVX NSCLC
[9] = test system: CAKI-1 renal
[10] = test system: PC-3 prostate

| Structure (SMILES) | TGI [1] [µM] | TGI [2] [µM] | TGI [3] [µM] | TGI [4] [µM] | TGI [5] [µM] | TGI [6] [µM] | TGI [7] [µM] | TGI [8] [µM] | GI50 [2] [µM] | GI50 [3] [µM] | GI50 [4] [µM] | GI50 [5] [µM] | GI50 [6] [µM] | GI50 [9] [µM] | TGI [9] [µM] | GI50 [7] [µM] | GI50 [8] [µM] | GI50 [10] [µM] | TGI [10] [µM] | GI50 [1] [µM] |
| --- | --- | --- | --- | --- | --- | --- | --- | --- | --- | --- | --- | --- | --- | --- | --- | --- | --- | --- | --- | --- |
| CCCCOC(=O)NC(=O)c1cn(C2CCCCC2)c(=O)[nH]c1=O | > 100 | > 100 | 80.4 | > 100 | > 100 | > 100 | > 100 | > 100 |  |  |  |  |  |  |  |  |  |  |  |  |
| N.N.O=C([O-])P(=O)([O-])[O-].[Na+].[Pt+4] |  | > 100 | > 100 | > 100 | > 100 | > 100 | > 100 | > 100 | > 100 | > 100 | > 100 | > 100 | > 100 | > 100 | > 100 | > 100 | > 100 |  |  |  |
| COc1ncc(-c2ccc3ncnc(Nc4cccc(Cl)c4)c3c2)cc1NS(=O)(=O)CCN1CCOCC1 |  | 8.6 |  |  |  |  | > 100 |  | 0.402 |  |  |  |  | 0.345 | > 100 | 1.25 |  | 0.326 | > 100 |  |
| CCO/N=C(/N)c1ncn(Cc2ccccc2)c1NCC(OCC)OCC | > 100 | > 100 | > 100 | > 100 | > 100 | > 100 | > 100 | > 100 |  |  |  |  |  |  | > 100 |  |  |  |  |  |
| CC[CH2][Sn]([Cl])([Cl])[CH2]CC.Oc1ccccc1C=NCCN=Cc1ccccc1O | 26 |  | 4.61 | 19.6 | 17.8 | 27 | 3.82 | 27.3 |  | 1.57 | 5.77 | 3.61 | 5.98 | 2.46 | 12.7 | 1.8 | 12.9 | 6.28 | 22.7 | 12.9 |
| Cc1[nH]c2ccccc2c1C1Cc2ccccc2N1C(=O)/C(Cl)=C/c1ccccc1 (stereo unspecified) | > 100 | > 100 | > 100 | > 100 | > 100 | > 100 | > 100 | > 100 |  |  |  |  |  |  | > 100 |  |  |  |  |  |
| CCOc1ccc2c(c1)[n+]([O-])c(-c1nc3ccccc3s1)c(N)[n+]2[O-] | > 100 | 63.3 | > 100 | > 100 | > 100 | > 100 | > 100 | > 100 |  |  |  |  |  |  | > 100 |  |  |  |  |  |
| N#C/C(=C\c1cc2ccccc2c2ccccc12)c1ccccc1 | 98.6 | > 29.9 | 19.5 | 28.9 | > 89 | > 51.8 | 24.9 | 75.2 |  |  |  |  |  |  | > 37.8 |  |  |  |  |  |
| OC/C=C(\I)CCCOCOCc1ccccc1 | > 100 | 80.2 |  | > 100 |  | > 100 | > 100 | > 100 |  |  |  |  |  |  |  |  |  |  |  |  |
| COc1ccc(/C(Cl)=C(\C=O)c2ccc([N+](=O)[O-])cc2)cc1 | > 100 | > 46.8 | 68.1 | 33.1 | 64.9 | 53.3 | > 49.1 | > 68.8 |  |  |  |  |  |  | 33.8 |  |  |  |  |  |
| CCC(=O)c1c(C(F)(F)F)n([O-])c2ccc(C)cc2[n+]1=O | 41.6 | 11.2 |  | 28.9 | > 50 |  | > 50 | 6.09 | 1.62 |  | 7.7 | 11.3 |  | 5.78 | 16.2 | 11.7 | 1.52 | 2.27 | 15.1 | 3.43 |
| CC(C)c1ccc(C(c2ccc(OCC(=O)O)cc2)c2ccc(C(C)C)cc(=O)c2O)c(O)c(=O)c1 |  |  |  | 20.7 | 41.6 | 21 | > 100 | > 100 |  |  |  |  |  |  | 18.1 |  |  |  |  |  |
| COc1ccc2nc3cc(Cl)ccc3c(NCCN)c2c1 |  | 3.56 |  |  | 33.3 |  | 3.25 |  | 1.73 |  |  | 18.6 |  | 1.65 | 3.06 | 1.45 |  | 1.72 | 3.38 |  |
| C=C1CC[C@@H]2[C@](C)(COC(C)=O)[C@H](OC(C)=O)CC[C@@]2(C)[C@@H]1CC(Nc1ccc(S(=O)(=O)Nc2ncccn2)cc1)C1=CCOC1=O (stereo partly specified) | 3.85 | 2.07 |  | 2.56 | 6.07 | 4.41 | 2.25 | 20.6 | 0.498 |  | 1.11 | 2.34 | 2.04 | 1.74 | 4.04 | 0.864 | 8.18 | 2.11 | 5.07 | 1.98 |
| COC(=O)C(=O)C(C(=O)C=C(C)C)C(=O)C(=O)Nc1ccc(C)cc1C (stereo unspecified) | > 100 | > 100 | > 100 | > 100 | > 100 | > 100 | > 100 | > 100 |  |  |  |  |  |  | > 100 |  |  |  |  |  |
| CC(C)N1CN(C(C(=O)N[C@@H]2C(=O)N3C2SC(C)(C)C3C(=O)O)c2ccccc2)CSC1=S (stereo partly specified) | > 100 | 72.1 | > 100 | > 100 | > 100 | > 100 |  | > 100 |  |  |  |  |  |  | > 100 |  |  |  |  |  |
| CCc1ccc(Nc2ccc([N+](=O)[O-])cc2[N+](=O)[O-])cc1 | > 100 |  | > 100 | > 100 | > 100 | > 100 | > 100 | > 100 |  |  |  |  |  |  | > 100 |  |  |  |  |  |
| COc1ccc(/C=C\c2cc(OC)c(OC)c(OC)c2)cc1OC(=O)NCCN(C)C |  | 0.000483 | 98.3 | > 25.7 |  | > 100 |  | > 58.7 |  |  |  |  | 0.00139 |  | > 100 |  |  |  |  |  |
| Cc1ccc(NC(=O)NCCCOc2ccc(N3C(N)=NC(N)=NC3(C)C)cc2Cl)cc1S(=O)(=O)F | > 100 |  | 81 | > 100 | > 100 | > 100 | > 100 | > 100 |  | 12 | 4.05 | 10.9 | 0.525 | 70 | > 100 | 2.03 | 10.9 | 1.49 | > 100 | 6.44 |
